From patent publication US8563565B2, “Pyrazoloquinoline derivatives” (Eisai R&D Management Co., Ltd., priority 2011, dated 2013)
Like-named read-outs stand apart in the source and are kept apart here.

Tests used:
[1] = molecular target: T1, human recombinant PDE9 protein (Homo sapiens, UniProt O76083); assay: PDE9 inhibitory activity test (measurement of PDE9 inhibitory action, [3H]-cGMP); format: biochemical; conditions: PDE9 IC50, human recombinant PDE9, 30° C., 10 min
T1 construct: His-tag (inferred from the Ni column purification; a myc His-tag vector is named only for the HEK293 expression check); made in house; host or cells: silkworm (pYNG vector, Katakura Industries)
From the text: 1) Preparation of a Human Recombinant PDE9 Protein
An hsPDE9A 1cDNA fragment was amplified by being based on a base sequence (Accession No.: AF048837) of the hsPDE9A1 registered on GenBank data base, and by using the following sequences (Hokkaido System Science Co., Ltd.) as a primer and Human hippocampus cDNA library (Clontech Laboratories, Inc.) as a template DNA, and using Pfu50 DNA polymerase (Invitrogen Corp.), and by a polymerase chain reaction (PCR) of the following condition.
The condition of PCR: [96° C., 5 min]×1 cycle, [(96° C., 10 sec), (57° C., 5 sec), (72° C., 2 min)]×30 cycles
The obtained hsPDE9A 1 cDNA fragment was incorporated in a TOPO-TA cloning vector (Invitrogen Corp.), and the base sequence was checked; and thereafter, the resultant was transfected in a pcDNA 3.1/myc His-tag vector (Invitrogen Corp.) to thereby make a human PDE9 expression vector for mammal cells. The human PDE9 expression vector for mammal cells was transfected with transient expression to an HEK293 cell by using a LIPOFETAMINE 2000 Reagent (Gibco). It was confirmed by Western blot method that the PDE9A expressed in the HEK293 cell, and then, the human PDE9A 1cDNA fragment was transfected in a pYNG vector (Katakura Industries Co., Ltd.) to thereby make an expression vector for insect cells. A supernatant of homogenized silk worm in which a large amount of PDE9 was expressed was purified by an equilibrated Ni column using a buffer A (20 mmol/L Tris-HCl, pH: 8.0, 1 mmol/L DTT, 10 mmol/L imidazole). After 1 hour of mixing of the supernatant and the Ni column, cleaning was carried out using a buffer B (20 mmol/L Tris-HCl, pH: 8.0, 1 mmol/L […]), and elution was carried out using a buffer C (20 mmol/L Tris-HCl, pH: 8.0, 1 mmol/L DTT, 100 mmol/L imidazole). An elution fraction was preparatively collected to thereby obtain a PDE9 enzyme solution.
2) Measurement of PDE9 Inhibitory Action
To 100 μL of a buffer D (40 mmol/L Tris-HCl, pH: 7.4, 10 mmol/L MgCl2, 1 mM DTT, 2 μM cGMP) solution containing [^3H]-cGMP ([…]/mL), 10 μL of a compound solution for evaluation (a solution in which a compound was dissolved in DMSO and diluted so that the DMSO concentration became 5%) and 90 μL of a solution prepared by diluting the PDE9 enzyme solution prepared in the above with a buffer E (40 mmol/L Tris-HCl, pH: 7.4, 10 mmol/L MgCl2, 1 mM DTT, 1 mmol/L EGTA) were added under ice cooling. The resultant mixed solution was incubated at 30° C. for 10 min, and thereafter heated for 2 min in boiled water to stop the enzyme reaction of the PDE9. Then, the resultant was returned to room temperature; 50 μL of 5′-Nucleotidase (Biomol GmbH, 10 units/mL) was added thereto; and the resultant was incubated at 30° C. for 10 min to thereby convert [^3H]-5′-GMP formed in the previous reaction to [^3H]-guanosine. 500 μL of an anion exchange resin (Bio-Rad AG1-X2 resin, mesh size: 200-400, H2O:resin=2:1) was added to the resultant reaction liquid, and allowed to stand for 10 min, and thereafter centrifuged (2,000 rpm, 10 min); and a supernatant in which the [^3H]-guanosine was present was transferred to a LumaPlate (PerkinElmer, Inc.), and the radioactivity was measured by a TopCount NXT microplate scintillation and luminescence counter (PerkinElmer, Inc.).
The inhibition percentage of the evaluation compound was calculated using the following expression, taking the radioactivity of a control containing no evaluation compound to be (A), the radioactivity of a blank containing no enzyme to be (B), and the radioactivity of the evaluation compound to be (C). Inhibition percentage=100−{[(C)−(B)]/[(A)−(B)]}×100(%)
The IC50 value for PDE9 of the evaluation compound was determined from inhibition percentage for various concentrations.

[2] = system: cGMP in the cerebrospinal fluid; assay: Effect on rodent cerebrospinal fluid cGMP (rat); format: in vivo; conditions: po, read-out: % CSF cGMP increase from vehicle control
Protocol: (§1) 3) Effect on Rodent Cerebrospinal Fluid cGMP
(§2) The test compound was administered to ICR male mice (Charles River Laboratories Japan, Inc.), Sprague-Dawley male rats (SD) (Charles River Laboratories Japan, Inc.) or Long-Evans male rats (LE) (Institute for Animal Reproduction), and the cerebrospinal fluid was then collected under pentobarbital anesthesia and stored at −20° C. cGMP in the cerebrospinal fluid was measured in accordance with the acetylation EIA procedure of cGMP EIA kit (GE Healthcare) or the non-acetylation procedure of cGMP EIA kit (Cayman) The result was an increase (C) in the amount of cGMP of the test compound-administered group (B) relative to the amount of cGMP of the vehicle-administered group (A), and was calculated using the following formula cGMP increase(C)=[(B)−(A)]/(A)×100(%)

cGMP in the hippocampus = assay: Effect on rodent hippocampal cGMP; format: in vivo, rat; conditions: po, read-out: % hippocampal cGMP increase from vehicle control
Protocol: 4) Effect on Rodent Hippocampal cGMP
The test compound was administered to Sprague-Dawley male rats (Charles River Laboratories Japan, Inc.) or Long-Evans male rats (Institute for Animal Reproduction) and then the animals were sacrificed with microwave under pentobarbital anesthesia, and the hippocampus was extracted. After measuring the wet weight, the hippocampus was frozen with liquid nitrogen and stored at −80° C. In the measurement of cGMP in the hippocampus, a 0.5 M perchloric acid/1 mM EDTA solution was added at 5% (w/v) based on the wet weight, and the mixture was homogenized. After the homogenization, the homogenate was centrifuged (10000 rpm, 15 min), and the supernatant was collected. The collected supernatant was neutralized with a 2 M potassium bicarbonate solution and centrifuged (13000 rpm, 10 min). The cGMP concentration in the supernatant was measured in accordance with the non-acetylation EIA procedure of cGMP EIA kit (GE Healthcare). The result was an increase (C) in the amount of cGMP of the test compound-administered group (B) relative to the amount of cGMP of the vehicle-administered group (A), and was calculated using the following formula. cGMP increase(C)=[(B)−(A)]/(A)×100(%)

[3] = system: cGMP in the cerebrospinal fluid; assay: Effect on rodent cerebrospinal fluid cGMP (mouse); format: in vivo, ICR male mice; conditions: 10 mg/kg p.o., sampling time 0.5 hr
Protocol: as §1, §2

[4] = rat(LE), 30 mg/kg p.o., sampling time 1 hr

T1 sequence (O76083 whole entry): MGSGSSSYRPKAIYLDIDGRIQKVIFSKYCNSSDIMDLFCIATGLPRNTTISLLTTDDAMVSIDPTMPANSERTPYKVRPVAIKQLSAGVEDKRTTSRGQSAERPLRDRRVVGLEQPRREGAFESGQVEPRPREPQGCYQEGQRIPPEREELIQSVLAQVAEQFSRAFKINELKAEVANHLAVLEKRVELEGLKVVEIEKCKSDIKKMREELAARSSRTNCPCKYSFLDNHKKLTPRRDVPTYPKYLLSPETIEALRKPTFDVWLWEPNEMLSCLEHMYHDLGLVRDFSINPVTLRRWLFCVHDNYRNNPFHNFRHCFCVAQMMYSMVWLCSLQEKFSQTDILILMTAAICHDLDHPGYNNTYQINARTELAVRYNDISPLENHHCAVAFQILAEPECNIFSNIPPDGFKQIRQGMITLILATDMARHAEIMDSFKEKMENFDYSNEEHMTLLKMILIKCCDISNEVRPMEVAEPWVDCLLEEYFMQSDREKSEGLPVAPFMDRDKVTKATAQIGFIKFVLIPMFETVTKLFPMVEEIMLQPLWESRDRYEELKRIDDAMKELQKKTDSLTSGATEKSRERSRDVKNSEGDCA

SMILES | IC50 [1] [nM] | change in vivo at 10 mg/kg (cGMP in the hippocampus; Rattus norvegicus, 1 h) [%] | change in vivo at 10 mg/kg ([2]; Rattus norvegicus, 1 h) [%] | further results
COc1nc(C)cc(C)c1-c1ccc2c(c1)[nH]c(=O)c1cnn(C3CCOC3)c12 (single isomer, unassigned; (-)) [28 (−), (−)-7-(2-methoxy-4,6-dimethylpyridin-3-yl)-1-(tetrahydrofuran-3-yl)-1H-pyrazolo[4,3-c]quinolin-4(5H)-one] | 8.36 | – | – | change in vivo at 3 mg/kg ([2]; Rattus norvegicus, 1 h): 257%
COc1cc(C)c(-c2ccc3c(c2)[nH]c(=O)c2cnn(C4CCOC4)c23)c(C)n1 (single isomer, unassigned; (-)) [29 (−), (−)-7-(6-methoxy-2,4-dimethylpyridin-3-yl)-1-(tetrahydrofuran-3-yl)-1H-pyrazolo[4,3-c]quinolin-4(5H)-one] | 30.7 | – | – | change in vivo at 30 mg/kg (cGMP in the hippocampus; Rattus norvegicus, 1 h): 34%; change in vivo at 30 mg/kg ([2]; Rattus norvegicus, 1 h): 238%
COc1ncc(C)c(-c2ccc3c(c2)[nH]c(=O)c2cnn([C@H]4CCOC4)c23)c1C [26 S] | – | 58 | 274 | –
COc1cc(C)c(-c2ccc3c(c2)[nH]c(=O)c2cnn(C4CCOCC4)c23)c(C)n1 [Example 3, 7-(6-methoxy-2,4-dimethylpyridin-3-yl)-1-(tetrahydro-2H-pyran-4-yl)-1H-pyrazolo[4,3-c]quinolin-4(5H)-one] | 14 | – | – | change in vivo at 10 mg/kg (cGMP in the hippocampus; Rattus norvegicus, 4 h): 32%; change in vivo at 10 mg/kg ([2]; Rattus norvegicus, 2 h): 186%
COc1nc(C)cc(C)c1-c1ccc2c(c1)[nH]c(=O)c1cnn(C3CCOCC3)c12 [Example 4, 7-(2-methoxy-4,6-dimethylpyridin-3-yl)-1-(tetrahydro-2H-pyran-4-yl)-1H-pyrazolo[4,3-c]quinolin-4(5H)-one] | 4.37 | – | – | change in vivo at 30 mg/kg (cGMP in the hippocampus; Rattus norvegicus, 1 h): 25%; change in vivo at 30 mg/kg ([2]; Rattus norvegicus, 1 h): 246%
COc1cc(C)c(-c2ccc3c(c2)[nH]c(=O)c2cnn(C4CCOCC4)c23)c(CF)n1 [Example 24] | 18.7 | – | 149 | –
COc1ncc(C)c(-c2ccc3c(c2)[nH]c(=O)c2cnn(C4COCCOC4)c23)c1C [Example 43, 1-(1,4-dioxepan-6-yl)-7-(2-methoxy-3,5-dimethylpyridin-4-yl)-1H-pyrazolo[4,3-c]quinolin-4(5H)-one] | 10.5 | 33 | 292 | –
Cc1cc(OC(C)C)nc(C)c1-c1ccc2c(c1)[nH]c(=O)c1cnn([C@H]3CCOC3)c12 [Example 51, (S)-7-(6-isopropyloxy-2,4-dimethylpyridin-3-yl)-1-(tetrahydrofuran-3-yl)-1H-pyrazolo[4,3-c]quinolin-4(5H)-one] | 4.87 | 17 | 189 | –
COc1ncc(C)c(-c2cc3[nH]c(=O)c4cnn([C@H]5CCOC5)c4c3cc2F)c1C [Example 53, (S)-8-fluoro-7-(2-methoxy-3,5-dimethylpyridin-4-yl)-1-(tetrahydrofuran-3-yl)-1H-pyrazolo[4,3-c]quinolin-4(5H)-one] | 10.1 | 27 | 202 | –
COc1cc(C)c(-c2cc3[nH]c(=O)c4cnn([C@H]5CCOC5)c4c3cc2F)c(C)n1 [Example 55, (S)-8-fluoro-7-(6-methoxy-2,4-dimethylpyridin-3-yl)-1-(tetrahydrofuran-3-yl)-1H-pyrazolo[4,3-c]quinolin-4(5H)-one] | 17.5 | 17 | 323 | –

The remaining molecules from weak to strong by IC50 [1], led by results:

IC50 [1] [nM] | SMILES | change in vivo at 10 mg/kg (cGMP in the hippocampus; Rattus norvegicus, 1 h) [%] | change in vivo at 10 mg/kg ([2]; Rattus norvegicus, 1 h) [%] | further results
25 | Cc1cc(C)c(-c2ccc3c(c2)[nH]c(=O)c2cnn(C4CCOCC4)c23)c(C)n1 [Example 2, 7-(2,4,6-trimethylpyridin-3-yl)-1-(tetrahydro-2H-pyran-4-yl)-1H-pyrazolo[4,3-c]quinolin-4(5H)-one] | – | – | % CSF cGMP increase from vehicle control [3]: 110%
19.7 | COc1ncc(F)c(C)c1-c1ccc2c(c1)[nH]c(=O)c1cnn(C3CCOCC3)c12 [Example 12] | – | – | change in vivo at 3 mg/kg ([2]; Rattus norvegicus, 1 h): 91%
11.1 | CCOc1cc(C)c(-c2ccc3c(c2)[nH]c(=O)c2cnn([C@H]4CCOC4)c23)c(C)n1 [Example 62, (S)-7-(6-ethoxy-2,4-dimethylpyridin-3-yl)-1-(tetrahydrofuran-3-yl)-1H-pyrazolo[4,3-c]quinolin-4(5H)-one] | – | – | change in vivo at 3 mg/kg ([2]; Rattus norvegicus, 1 h): 155%
9.3 | Cc1cc(OC(F)F)nc(C)c1-c1ccc2c(c1)[nH]c(=O)c1cnn(C3CCOCC3)c12 [Example 18] | – | – | change in vivo at 3 mg/kg ([2]; Rattus norvegicus, 1 h): 123%
8.87 | COc1ncc(C)c(-c2ccc3c(c2)[nH]c(=O)c2cnn(C4CCOCC4)c23)c1C [Example 15, 7-(2-methoxy-3,5-dimethylpyridin-4-yl)-1-(tetrahydro-2H-pyran-4-yl)-1H-pyrazolo[4,3-c]quinolin-4(5H)-one] | – | – | change in vivo at 30 mg/kg (cGMP in the hippocampus; [4]): 33%; change in vivo at 30 mg/kg [2, 4]: 203%
8.71 | COc1nc(C)cc(C)c1-c1cc2[nH]c(=O)c3cnn([C@H]4CCOC4)c3c2cc1F [Example 54, (S)-8-fluoro-7-(2-methoxy-4,6-dimethylpyridin-3-yl)-1-(tetrahydrofuran-3-yl)-1H-pyrazolo[4,3-c]quinolin-4(5H)-one] | 23 | 282 | –
6.86 | COc1nccc(C)c1-c1ccc2c(c1)[nH]c(=O)c1cnn(C3CCOCC3)c12 [Example 6, 7-(2-methoxy-4-methylpyridin-3-yl)-1-(tetrahydro-2H-pyran-4-yl)-1H-pyrazolo[4,3-c]quinolin-4(5H)-one] | – | 120 | –
